How the values were obtained:
[1] = system: bovine cartilage explants; assay: Bovine cartilage explant assay (35S-GAG release, rhIL-1α stimulated); type: cell-based; settings: rhIL-1α 5 ng/mL, 3-4 days culture
Excerpt: A tissue culture assay was used to measure the ability of the compounds of the present invention to slow the degradation of the extracellular matrix by metalloproteinases. This assay measured the amount of ^35 S-glycosaminoglycan (^35 S-GAG) released from labeled bovine cartilage explants.
Knee joints from a 1 to 3 week old calf were obtained immediately after sacrifice from the Abattoir and then transported on ice. The intact joints were washed well with tap water and soaked in 50% (v/v) Povidine iodine solution, obtained from Burre National, Inc., Baltimore, Md. All subsequent steps were performed in a laminar flow tissue culture hood using standard sterile technique. The joint was immobilized in a shank holder and the joint capsule was cut open to expose the articular cartilage. Cartilage explant plugs, approximately 15 mg wet weight, were removed from the flat articulating surfaces in the lower-most region of the knee joint using a sterile steel cork-borer and collected in a 250 mL roller bottle containing about 100 mL fresh Delbecco's minimum essential medium (DMEM), obtained from Gibco BRC, Life Technologies, Gaithersburg, Md., containing 4.5 g/l (D)-glucose and (L)-glutamine, without sodium pyruvate. The fresh media also contained enough Hepes buffer and sodium bicarbonate such that the pH was about 7.4. The media was then further supplemented just before use with 100 units Penicillin, 100 μg Streptomycin, and 50 μg (L)-ascorbic acid per mL of medium.
Once collected, the explant plugs were washed four times with 50 mL fresh DMEM. The plugs were then placed in the incubator for a minimum of 1 hour to equilibrate, before proceeding to make disks from the articulating surface of each plug. A 1 mm thick disk was sliced from individual plugs from the end that was the articulating surface of the joint. The plug was held steady in the sterile template (4 mm diameter×1.5 mm deep) using sterile forceps. A scalpel blade was used to carefully slice off the disk. Only the superficial articulating surface responded well in culture.
Individual disks obtained were transferred to a tissue culture flask containing about 100 mL fresh media. The flask containing the disks was placed in an incubator at 37° C. (with 5% CO2, 95% air) and allowed to equilibrate overnight and at least one additional day before labeling. When ready to label, the old media was replaced with 50 mL fresh media containing about 500 μCi ^35 S-Sodium Sulfate. The plugs were labeled in bulk for about 48 hours. The next morning, the "hot" media was removed and replaced with fresh "cold" media. The disks were again allowed to equilibrate overnight before being used for actual experiments.
The media in which the disks were stored was changed immediately prior to performing the assay. The disks were then returned to the incubator until the test media and the two control media had been prepared. The test media consisted of the desired concentration of a compound being tested for its ability to inhibit extracellular matrix degradation and concomitant recombinant human Interleukin rhIL-1α (5 ng/mL) in fresh DMEM solution. The control media were identical to the test media, except that the first control media lacked rhIL-1α and the second control media lacked the test compound. 250 μL of each of the test and control media were transferred to separate 96-well TC plates. Flamed forceps were used to transfer a disk from the incubator to each 96-well TC plates that had been filled with either the test media or one of the two control media.
The TC plates were then placed in the incubator and cultured for 3-4 days (initial incubation with rhIL-1α alpha takes at least 3 days to stimulate endogenous metalloproteinases). A 50 μL aliquot of media from each TC plate was saved and counted. The rest of the media was removed with a suction device.
The cartilage disks from each TC plate were also saved for counting. […]

stromelysin = stromelysin (Homo sapiens, UniProt P08254); assay: Assay of stromelysin inhibition activity (fluorogenic coumarin peptide substrate); type: biochemical; settings: trypsin-activated stromelysin 2 nM, H-150 buffer pH 7.4, room temperature; read-out: Ki(app)
stromelysin, sequence (P08254 100-477): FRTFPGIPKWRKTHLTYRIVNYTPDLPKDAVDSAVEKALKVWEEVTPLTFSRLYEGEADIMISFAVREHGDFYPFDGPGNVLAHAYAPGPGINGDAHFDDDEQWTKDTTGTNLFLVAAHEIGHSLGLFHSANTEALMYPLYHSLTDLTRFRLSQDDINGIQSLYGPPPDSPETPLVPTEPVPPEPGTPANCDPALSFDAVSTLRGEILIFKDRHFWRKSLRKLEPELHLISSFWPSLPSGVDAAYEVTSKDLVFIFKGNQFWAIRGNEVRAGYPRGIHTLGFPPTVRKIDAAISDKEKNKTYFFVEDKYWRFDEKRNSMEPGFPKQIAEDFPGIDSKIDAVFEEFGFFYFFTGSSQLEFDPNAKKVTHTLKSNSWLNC
Method in brief: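 Human stromelysin trypsin-activated, then used at 2 nM in HEPES/NaCl/CaCl2 buffer pH 7.4 at room temperature with coumarin peptide substrate. Initial hydrolysis rate followed by fluorescence (ex 328/em 393 nm); inhibitor added stepwise to 30-70% inhibition, Ki derived assuming simple competitive inhibition with substrate far below Km.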

92 kD gelatinase = 92 kD gelatinase (Homo sapiens, UniProt P14780); assay: Assay of 92 KD gelatinase inhibition activity; type: biochemical; settings: 92KD gelatinase 25 pM, H-150 buffer pH 7.4; read-out: Ki(app)
92 kD gelatinase, sequence (P14780 107-707): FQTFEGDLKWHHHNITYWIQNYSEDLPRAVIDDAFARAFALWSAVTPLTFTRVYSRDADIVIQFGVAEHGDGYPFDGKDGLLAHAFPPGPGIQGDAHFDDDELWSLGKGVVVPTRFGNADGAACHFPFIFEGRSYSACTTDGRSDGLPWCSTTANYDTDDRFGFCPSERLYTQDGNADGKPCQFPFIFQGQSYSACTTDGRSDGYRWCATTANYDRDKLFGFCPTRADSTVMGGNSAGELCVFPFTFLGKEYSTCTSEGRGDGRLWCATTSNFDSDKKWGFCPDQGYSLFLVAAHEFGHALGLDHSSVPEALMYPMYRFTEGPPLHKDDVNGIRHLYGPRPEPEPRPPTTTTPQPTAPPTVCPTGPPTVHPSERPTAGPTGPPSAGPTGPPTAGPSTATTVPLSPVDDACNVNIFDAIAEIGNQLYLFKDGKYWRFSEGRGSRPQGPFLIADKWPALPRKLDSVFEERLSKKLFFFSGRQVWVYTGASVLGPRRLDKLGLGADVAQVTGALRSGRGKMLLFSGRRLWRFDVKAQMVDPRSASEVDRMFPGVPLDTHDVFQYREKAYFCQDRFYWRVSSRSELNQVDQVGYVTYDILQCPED
Method: H-150 buffer, pH 7.4, was prepared by CaCl2 H2 O (1.47 grams), NaCl (8.77 grams) and N-[2-hydroxyethyl]piperazine-N'-[2-ethanesulfonic acid](23.83 grams) to distilled and deionized water and then bring the final volume of the solution to 1 liter. A reaction mixture having a final volume of 500 μL was prepared with H-150 buffer, 200 μgrams of Pro-92KD gelatinase (Strongin et al., J. Biol. Chem., 268:14033 (1993); Goldberg, et al., J. Biol. Chem., 267:4583 (1992); Okada et al., J. Biol. Chem. 267:21712 (1992)), p-aminophenyl mercuric acetate (Sigma Chemical Co., St. Louis, Mo.) (1 mM) and Brij (dodexylpoly(oxyethyleneglycolether))(0,008% w/v). The reaction mixture wsa then incubated for 24 hours at 37° C.
The reaction mixture was applied to a NAP-5 column (G-25 SEPHADEX™, Pharmacia). Fractions containing 72KD gelatinase were identified using 12% polyacrylamide gel electrophoresis and concentrated to about 100-200 μliters by centrifigation (5000 g, 1 hour).
A solution containing H-150 buffer (2.0 mL), 92KD gelatinase (25 pM) and ethylphenolpoly(ethylene-glycolether)n (Boerhringer Mannheim) (4.0 μM) was prepared in a stirred cuvette. Coumarin peptide substrate (4 μL of a 5 mM solution in dimethyl sulfoxide) was added to the reaction mixture. The rate of hydrolysis was determined for about 100-200 seconds by measuring the fluorescence of the reaction at ex328 nanometers and […] using a Hitachi F-2000 Fluorescence Spectrophotometer.
(§1) 2 μL of a 10 mM inhibitor stock solution (in dimethyl sulfoxide) is added and the reduction in the rate of hydrolysis is determined. Additional 2 μL aliquots of the stock inhibitor solution is added until a 30% to 70% inhibition is observed. Ki is calculated on the assumption of simple competitive inhibition and that the substrate concentration is much less than Km.

[2] = molecular target: human neutrophil collagenase (Homo sapiens, UniProt P22894); assay: Assay of human neutrophil collagenase inhibition activity; type: biochemical; settings: human neutrophil collagenase 2 nM, H-150 buffer pH 7.4; read-out: Ki(app)
human neutrophil collagenase, sequence (P22894 101-467): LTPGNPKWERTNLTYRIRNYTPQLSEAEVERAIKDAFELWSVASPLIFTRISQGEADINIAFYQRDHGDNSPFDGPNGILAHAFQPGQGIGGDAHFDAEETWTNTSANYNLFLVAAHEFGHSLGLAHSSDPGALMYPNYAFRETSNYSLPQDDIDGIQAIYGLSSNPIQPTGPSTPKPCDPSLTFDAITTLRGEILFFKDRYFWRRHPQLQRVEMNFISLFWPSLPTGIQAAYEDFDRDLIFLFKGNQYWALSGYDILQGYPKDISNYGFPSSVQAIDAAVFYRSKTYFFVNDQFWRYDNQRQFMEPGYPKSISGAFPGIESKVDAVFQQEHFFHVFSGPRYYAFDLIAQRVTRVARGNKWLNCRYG
Method: H-150 buffer, pH 7.4, was prepared by adding CaCl2 H2 O (1.47 grams), NaCl (8.77 grams) and N-[2-hydroxyethyl]piperazine-N'-[2-ethanesulfonic acid] (23.83 grams) to distilled and deionized water and then bringing the final volume of the solution to 1 liter.
A reaction mixture with a final volume of 2.0 mL was prepared from H-150 buffer, human neutrophil collagenase (Schnierer, et al., Blochem. Biophys. Res. Comm., 191:319 (1993); Knight et al., Federation of Europena Biochemical Societies 296:263 (1992)) (2 nM). Coumarin peptide substrate (4 μL of a 5 mM solution in dimethyl sulfoxide) was added to the reaction mixture. The rate of hydrolysis was determined for about 100-200 seconds by measuring the fluorescence of the reaction at ex328 nanometers and […] using a Hitachi F-2000 Fluorescence Spectrophotometer.
as §1

[3] = Bos taurus, 25 μM compound, read-out: % inhibition (concentration [μM]) of cartilage degradation

Row | Structure (SMILES) | % inhibition (concentration [μM]) of cartilage degradation ([1]; 25 μM compound) [%] | Ki (stromelysin) [nM] | % inhibition (concentration [μM]) of cartilage degradation ([1]; 50 μM compound) [%] | further results
1 | CC(C)[C@H](NC(=O)[C@H](Cc1ccccc1)NC(=O)Cc1ccc(-c2ccccc2)cc1)C(=O)Nc1n[nH]c(=S)s1 [5-(N-(4-phenyl)phenylacetyl-phenylalanyl-valylamino)-1,3,4-thiadiazole-2-thione] | 37 | 135 |  | 
2 | O=C(N[C@@H](CCc1ccccc1)C(=O)Nc1n[nH]c(=S)s1)OCC1c2ccccc2-c2ccccc21 [5-(N-(9-flourenylmethoxycarbonyl)homophenylalanylamino)-1,3,4-thiadiazole-2-thione] |  | 436 | 65 | Ki (92 kD gelatinase): 0.35 nM
3 | CC(C)[C@H](NC(=O)OCC1c2ccccc2-c2ccccc21)C(=O)Nc1n[nH]c(=S)s1 [5-(N-(9-fluorenylmethoxycarbonyl)valylamino)-1,3,4-thiadiazole-2-thione] |  | 128 |  | inhibition at 20 µM ([1]; Bos taurus, 20 μM compound, read-out: % inhibition (concentration [μM]) of cartilage degradation): 42%
4 | CC(C)[C@H](NC(=O)Cc1ccc(-c2ccccc2)cc1)C(=O)Nc1n[nH]c(=S)s1 [5-(N-((4-phenyl)phenylacetyl)valylamino)-1,3,4-thiadiazole-2-thione] |  | 100 |  | inhibition at 25 µM [1, 3]: 47%
5 | CC(C)[C@H](NC(=O)[C@H](Cc1ccc(OCc2ccccc2)cc1)NC(=O)OCc1ccccc1)C(=O)Nc1n[nH]c(=S)s1 [5-(N-benzyloxycarbnyl-(O-benzyl)tyrosyl-valylamino)-1,3,4-thiadiazole-2-thione] |  | 80 | 59 | Ki [2]: 2.15 nM
6 | CC(C)[C@H](NC(=O)[C@H](CCC(=O)NC(c1ccccc1)(c1ccccc1)c1ccccc1)NC(=O)OCc1ccccc1)C(=O)Nc1n[nH]c(=S)s1 [5-(N-benzyloxycarbonyl-(7--N-trityl)glutamyl-valyamino-1,3,4-thiadiazole-2-thione] | 56 | 91 |  | 
7 | CC(C)[C@H](NC(=O)[C@H](CCC(=O)OCc1ccccc1)NC(=O)OCc1ccccc1)C(=O)Nc1n[nH]c(=S)s1 [5-(N-benzyloxycarbonyl-(O-benzyl)glutamoyl-valylamino)-1,3,4-thiadiazole-2-thione] | 33 | 146 |  | 
8 | O=C(N[C@H](CCc1ccccc1)C(=O)Nc1n[nH]c(=S)s1)OCc1ccccc1 [5-(N-benzyloxycarbonyl-D-homophenylalanylamino)-1,3,4-thiadiazole-2-thione] |  |  |  | inhibition at 25 µM [1, 3]: 22%
9 | O=C(N[C@@H](Cc1c[nH]c2ccccc12)C(=O)N[C@@H](Cc1ccccc1)C(=O)Nc1n[nH]c(=S)s1)OCc1ccccc1 [5-(N-benzyloxycarbonyl-tryptoyl-phenylalanylamino)-1,3,4-thiadiazole-2-thione] |  | 225 | 35 | 

Source: US5677282A (Proscript, Inc., priority 1995, dated 1997)
